Data reported in patent US9012459B2, “Monohydrate crystalline form of 3-(5-(4-(3-fluoropropyl)-piperazin-1-yl)benzimidazol-2-yl)-1-azaazulen-2-one, preparation, and pharmaceutical composition thereof” (Industrial Technology Research Institute, priority 2012, dated 2015).
Where two headings read alike, the source gives them in different places.

Legend:
[1] = hygroscopicity test (weight gain); assay type: physicochemical; conditions: for Weight gain (%): 1 day, temperature 22.5/21.8 ° C., relative humidity 70/71 %; for hygroscopicity: Hydroscopicity test
Experimental: The monohydrate form of Formula I (300 mg) was dissolved at room temperature in the mix solution of CH2Cl2 (50 mL) and methanol (50 mL). Na2SO4 (10 g) was then added into the solution to absorb water with stir for 2 hours.

[2] = pharmacokinetics profile and bioavailability, PO dosing; assay type: in vivo; conditions: PO 30 mg/kg, male SD rat; monohydrate in capsule and in 0.5% methyl cellulose suspension, sample #4 in 0.5% methyl cellulose
Experimental: The pharmacokinetics profile and the bioavailability were tested by a PO (per os) dosing with 30 mg/kg of sample of Example 1 (monohydrate), good in capsule (Tropac, 9el) and in bottle (0.5% methyl cellulose suspension) for male SD rat; and also a PO dosing with 30 mg/kg of sample #4 (mixed crystalline form) in 0.5% methyl cellulose for male SD rat as a treatment control. With the result from the above testing, the preferable PO dosing for first in human model was determined.
Generally, the PK profile of the crystalline form with good crystallinity and stability would be worse than that of amorphous form and complex form.
The terms used in FIG. 10 were listed as follows, PO (per os) represents taken by mouth; Cmax (ng/mL) represents the peak plasma concentration of a drug after administration; Tmax (hr) represents the time to reach Cmax; T1/2 (hr) represents elimination half-life, which represents the time required for the concentration of the drug to reach half of its original value; and AUC (hr*ng/mL) [area under the curve] represents the integral of the concentration-time curve (after a single dose or in steady state), and the bioavailability could be deducted from AUC values.

[3] = solubility in different pH buffer solutions (HPLC); assay type: physicochemical; conditions: buffer solution, thermodynamic from solid, read-out: Concentration (solubility)
[4] = stability examination by slurry test (XRPD); assay type: physicochemical; conditions: stirred at 25° C. for 3 days in ethyl acetate, heptanes or isopropanol
Experimental: 1. Formula I-EA: the monohydrate form of Formula I (57 mg) and Ethyl acetate (1 mL) was provided.
2. Formula I-Heptane: the monohydrate form of Formula I (51 mg) and Heptanes (1 mL) was provided: […]
3. Formula I-IPA: the monohydrate form of Formula I (53 mg) and 1 mL of Isopropanol (1 mL) was provided.
The solutions provided above were stirred at 25° C. for 3 days and then a centrifugation was performed to collect the solid with centrifuge in each. Each of the collected solids was dried and analyzed using XPRD. […] This is a pre-test for the subsequent formulation, which is aimed to confirm that the monohydrate form wouldn't change with the incorporation of solvents. Therefore, the solvents used herein may not be the same as those crystallized solvents used in the embodiments.

[5] = stability test (XRPD and HPLC over time); assay type: physicochemical; conditions: about 25-30° C. and 40%-45% RH; after preparation, one, two and four months
Experimental: An appropriate amount of samples were prepared according to the method of Example 1. A XPRD analysis and a HPLC analysis were performed, under the environment of about 25-30° C. and 40%-45% RH, after the preparation of the samples (FIGS. 7a and 8a), and after one month (FIGS. 7b and 8b), two months (FIGS. 7c and 8c), and four months (FIGS. 7d and 8d) respectively from the time of preparation, and the results were examined to observe their differences over time.

Row | SMILES | Weight gain (%) [1] [%] | hygroscopicity [1] [%] | PK profile (Cmax, Tmax, T1/2, AUC) compared between the 3 treatments [2] | solubility at 24 h ([3]; pH 1.2, simulated gastric fluid, buffer pH1.2, 300 rpm) [µg/mL] | solubility at 24 h ([3]; pH 5, aqueous buffer, buffer pH5, 300 rpm) [µg/mL] | solubility at 24 h ([3]; pH 6.8, aqueous buffer, buffer pH6.8, 300 rpm) [µg/mL] | solubility at 24 h ([3]; pH 7.4, aqueous buffer, buffer pH7.4, 300 rpm) [µg/mL] | crystalline form stability in slurry (XRPD vs original form) [4] | stability (XRPD and HPLC differences over time) [5]
1 | O=c1[nH]c2cccccc-2c1-c1nc2ccc(N3CCN(CCCF)CC3)cc2[nH]1 [anhydrate form, 3-(5-(4-(3-fluoropropyl)piperazin-1-yl)benzimidazol-2-yl)-1-azaazulen-2-one] | 3.81 | 3.81 |  |  |  |  |  |  | 
2 | O=c1[nH]c2cccccc-2c1-c1nc2ccc(N3CCN(CCCF)CC3)cc2[nH]1 [monohydrate form of Formula I, 3-(5-(4-(3-fluoropropyl)piperazin-1-yl)benzimidazol-2-yl)-1-azaazulen-2-one] | 1.57 | 1.57 | no statistically significant difference | 26300 | 263 | 3.7 | 2.4 | stable | stable and substantially the same over four months
